Test results: ChEMBL document CHEMBL1143179 (Bioorg Med Chem Lett, 2008)
The source made the active and inactive calls. The calls are words filed in the database; no cut-off is given here.

Key:
[1] = biological target: T1, Prostaglandin E2 receptor EP2 subtype (Homo sapiens, UniProt P43116); assay: Displacement of [3H]PGE2 from human EP2 receptor
[2] = biological target: T2, Prostaglandin E2 receptor EP4 subtype (Homo sapiens, UniProt P35408); assay: Agonist activity at human EP4 receptor by cAMP assay; assay type: functional
T2 sequence (P35408 whole entry): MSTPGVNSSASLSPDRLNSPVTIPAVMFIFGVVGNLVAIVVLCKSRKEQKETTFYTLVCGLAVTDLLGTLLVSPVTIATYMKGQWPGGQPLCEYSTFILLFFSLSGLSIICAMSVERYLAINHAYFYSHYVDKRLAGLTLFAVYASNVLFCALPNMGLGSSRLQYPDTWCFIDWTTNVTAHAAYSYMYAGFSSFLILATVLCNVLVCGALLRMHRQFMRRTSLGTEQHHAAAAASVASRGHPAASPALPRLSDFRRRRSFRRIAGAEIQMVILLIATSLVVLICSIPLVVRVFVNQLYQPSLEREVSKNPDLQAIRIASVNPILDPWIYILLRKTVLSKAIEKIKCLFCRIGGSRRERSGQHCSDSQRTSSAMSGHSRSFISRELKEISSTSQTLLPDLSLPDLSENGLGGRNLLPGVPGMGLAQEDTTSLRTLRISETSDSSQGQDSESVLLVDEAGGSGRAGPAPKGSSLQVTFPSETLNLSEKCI

Mus musculus [3] = assay: Induction of ovulation in sc dosed CD1 mouse; assay type: functional
[4] = biological target: T2, Prostaglandin E2 receptor EP4 subtype; assay: Displacement of […] from human EP4 receptor
[5] = biological target: T1, Prostaglandin E2 receptor EP2 subtype; assay: Agonist activity at human EP2 receptor by cAMP assay; assay type: functional
Mus musculus [6] = assay: Induction of ovulation in po dosed CD1 mouse; assay type: functional
[7] = Half life in rat at 10 mg/kg, po; assay type: ADME, organism-based; set-up: dose 10 mg/kg, route oral; details: in vivo
[8] = Half life in rat at 10 mg/kg, sc; assay type: ADME, organism-based; set-up: dose 10 mg/kg, route subcutaneous; details: in vivo
[9] = Tmax in rat at 10 mg/kg, po; assay type: ADME, organism-based; set-up: dose 10 mg/kg, route oral; details: in vivo
Rattus norvegicus [10] = assay: AUC (0 to 48 hrs) in rat at 10 mg/kg, sc; assay type: ADME, organism-based, Plasma; set-up: time < 48 hr, dose 10 mg/kg, route subcutaneous; details: in vivo
Cavia porcellus [11] = assay: Inhibition of methacholine-induced bronchoconstriction in Duncan-Hartley guinea pig at >3 ug/kg; assay type: functional
Rattus norvegicus [12] = assay: Oral bioavailability in rat at 10 mg/kg; assay type: ADME, organism-based; details: in vivo
[13] = Drug distribution in rat at 10 mg/kg, iv; assay type: ADME, organism-based; set-up: dose 10 mg/kg, route intravenous; details: in vivo, read-out: Drug uptake
[14] = Tmax in rat at 10 mg/kg, sc; assay type: ADME, organism-based; set-up: dose 10 mg/kg, route subcutaneous; details: in vivo
Cavia porcellus [15] = species: Cavia porcellus; assay: Inhibition of methacholine-induced bronchoconstriction in Duncan-Hartley guinea pig; assay type: functional
Rattus norvegicus [16] = assay: Bioavailability in rat at 10 mg/kg, sc; assay type: ADME, organism-based; details: in vivo
[17] = Half life in rat at 10 mg/kg, iv; assay type: ADME, organism-based; set-up: dose 10 mg/kg, route intravenous; details: in vivo
[18] = Tmax in rat at 10 mg/kg, iv; assay type: ADME, organism-based; set-up: dose 10 mg/kg, route intravenous; details: in vivo
[19] = Clearance in rat at 10 mg/kg; assay type: ADME, organism-based; set-up: dose 10 mg/kg; details: in vivo
Rattus norvegicus [20] = assay: AUC (0 to 48 hrs) in rat at 10 mg/kg, po; assay type: ADME, organism-based, Plasma; set-up: time < 48 hr, dose 10 mg/kg, route oral; details: in vivo
Rattus norvegicus [21] = assay: AUC (0 to 48 hrs) in rat at 10 mg/kg, iv; assay type: ADME, organism-based, Plasma; set-up: time < 48 hr, dose 10 mg/kg, route intravenous; details: in vivo

T1 sequence (P43116 whole entry): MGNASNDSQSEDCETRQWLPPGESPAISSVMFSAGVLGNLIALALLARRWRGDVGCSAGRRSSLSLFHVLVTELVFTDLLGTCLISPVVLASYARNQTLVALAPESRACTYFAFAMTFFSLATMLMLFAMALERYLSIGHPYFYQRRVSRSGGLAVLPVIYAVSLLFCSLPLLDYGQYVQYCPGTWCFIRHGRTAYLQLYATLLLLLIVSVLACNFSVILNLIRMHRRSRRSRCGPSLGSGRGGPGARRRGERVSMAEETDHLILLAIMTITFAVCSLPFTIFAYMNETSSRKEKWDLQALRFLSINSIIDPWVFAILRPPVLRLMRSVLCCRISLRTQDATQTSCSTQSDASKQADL

| Structure (SMILES) | Ki [1] [nM] | EC50 [2] [nM] | Ki [4] [nM] | EC50 [5] [nM] | other results |
| --- | --- | --- | --- | --- | --- |
| O=C(O)c1ccc(CCN2C(=O)CC[C@@H]2/C=C/[C@@H](O)Cc2cccc(Cl)c2)cc1 | 1000 | 0.03 | 0.02 | 250 | Activity (Mus musculus [3]): inactive |
| CCCC1([C@H](O)C/C=C/[C@H]2[C@H](O)CC(=O)[C@@H]2CCCCCCC(=O)OC)CCC1 | – | – | – | – | Activity (Mus musculus [6]): inactive |
| O=C(O)c1ccc(CCN2C(=O)CC[C@@H]2/C=C/[C@@H](O)Cc2ccccc2)cc1 | 2540 | 0.03 | – | 434 | – |
| CCCCC1([C@@H](O)/C=C/[C@H]2CCC(=O)N2CCc2ccc(C(=O)O)cc2)CCC1 | 21 | 0.3 | 2 | 3 | ED50 (Mus musculus [6]): 1 mg/kg; Activity (Mus musculus [3]): inactive |
| CCC[C@H](O)/C=C/[C@H]1CCC(=O)N1CCc1ccc(C(=O)O)cc1 | 25000 | – | 27 | – | – |
| CC[C@H](O)/C=C/[C@H]1CCC(=O)N1CCc1ccc(C(=O)O)cc1 | > 10000 | – | 490 | – | – |
| CCCCC[C@H](O)/C=C/[C@H]1CCC(=O)N1CCc1ccc(C(=O)O)cc1 | – | 0.02 | – | 15 | half-life [7]: 20.8 h; half-life [8]: 31.6 h; Tmax [9]: 4 h; AUC (Rattus norvegicus [10]): 35175.6 ng·h/mL; Inhibition (Cavia porcellus [11]): >50%; F (Rattus norvegicus [12]): 33%; Vd [13]: 42.4 L/kg; Tmax [14]: 0.25 h; ED50 (Cavia porcellus [15]): 0.0017 mg/kg; F (Rattus norvegicus [16]): 82%; half-life [17]: 14.3 h; Tmax [18]: 4.98 min; clearance [19]: 9.17 mL/min/kg; AUC (Rattus norvegicus [20]): 14657.8 ng·h/mL; AUC (Rattus norvegicus [21]): 18095.3 ng·h/mL |
| CCCCCC[C@H](O)/C=C/[C@H]1CCC(=O)N1CCc1ccc(C(=O)O)cc1 | 54 | – | – | – | – |
| CCCC[C@H](O)/C=C/[C@H]1CCC(=O)N1CCc1ccc(C(=O)O)cc1 | 425 | 0.04 | 1 | 80 | – |
| CCCCC(C)(C)[C@H](O)/C=C/[C@H]1CCC(=O)N1CCc1ccc(C(=O)O)cc1 | 141 | 3 | 9 | 19 | – |
